# Measurements as given in ChEMBL document CHEMBL1201862, “PubChem BioAssay data set” (2004).
# The source made the active and inactive calls.
# How the values were obtained:
# [1] = Luminescence Cell-Based Dose Retest to Confirm Inhibitors of Cancer Stem Cells. [Related pubchem assays (depositor defined):AID2717, AID2721]; format: functional; settings: Homo sapiens
# [2] = decrease of insulin promoter-GFP reporter – imaging, high-content screening, mouse beta cells (AID 1628); format: functional; settings: MIN6
# [3] = MIN6 cell viability loss – mouse insulinoma, cytotoxicity control, dose response (AID 2122); format: functional;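 further: confirmatory high-throughput counterscreen run to flag cytotoxic compounds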
# [4] = Trypanosoma cruzi growth suppression in host cells – NIH3T3 host cells, beta-gal luminescence, confirmation (AID 2044); format: functional, cell-based;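 further: intracellular parasites grown in NIH/3T3 mouse fibroblasts as host cells; luminescent beta-galactosidase reporter signal from transgenic T. cruzi replicating inside host cells; inhibitors lower the luminescence signal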
# [5] = NIH3T3 cell viability loss – ATP luminescence, mouse fibroblasts, counter-screen, dose response (AID 2010); format: functional, cell-based;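 further: cells exposed to compound for about 90 hours before reading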
# [6] = biological target: T1, G-protein coupled receptor 35 (Homo sapiens, UniProt Q9HC97); test: SAR Analysis for the identification of Selective Antagonists of ERK1/2 Activity in GPR35-Overexpressing U2OS Cells. [Related pubchem assays: 2079, 2058 ]; format: functional, cell-based
# T1 sequence (Q9HC97 whole entry): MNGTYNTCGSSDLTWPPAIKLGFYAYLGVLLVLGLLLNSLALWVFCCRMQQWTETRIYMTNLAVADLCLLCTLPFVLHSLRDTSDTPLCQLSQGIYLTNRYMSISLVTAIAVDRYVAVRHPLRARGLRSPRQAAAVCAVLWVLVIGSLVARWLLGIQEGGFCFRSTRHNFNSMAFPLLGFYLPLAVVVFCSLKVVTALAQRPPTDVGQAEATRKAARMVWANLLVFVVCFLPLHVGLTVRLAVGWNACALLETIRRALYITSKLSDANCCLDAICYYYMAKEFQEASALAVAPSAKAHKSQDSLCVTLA
# Protein RecA = biological target: T2, Protein RecA (Mycobacterium tuberculosis, UniProt P9WHJ3); test: Fluorescence Cell-Free Homogeneous Dose Retest to Identify Inhibitors of RecA-Intein Splicing Activity. [Related pubchem assays (depositor defined):AID2097, AID2223, AID489010, AID492950]; format: functional
# T2 sequence (P9WHJ3 whole entry): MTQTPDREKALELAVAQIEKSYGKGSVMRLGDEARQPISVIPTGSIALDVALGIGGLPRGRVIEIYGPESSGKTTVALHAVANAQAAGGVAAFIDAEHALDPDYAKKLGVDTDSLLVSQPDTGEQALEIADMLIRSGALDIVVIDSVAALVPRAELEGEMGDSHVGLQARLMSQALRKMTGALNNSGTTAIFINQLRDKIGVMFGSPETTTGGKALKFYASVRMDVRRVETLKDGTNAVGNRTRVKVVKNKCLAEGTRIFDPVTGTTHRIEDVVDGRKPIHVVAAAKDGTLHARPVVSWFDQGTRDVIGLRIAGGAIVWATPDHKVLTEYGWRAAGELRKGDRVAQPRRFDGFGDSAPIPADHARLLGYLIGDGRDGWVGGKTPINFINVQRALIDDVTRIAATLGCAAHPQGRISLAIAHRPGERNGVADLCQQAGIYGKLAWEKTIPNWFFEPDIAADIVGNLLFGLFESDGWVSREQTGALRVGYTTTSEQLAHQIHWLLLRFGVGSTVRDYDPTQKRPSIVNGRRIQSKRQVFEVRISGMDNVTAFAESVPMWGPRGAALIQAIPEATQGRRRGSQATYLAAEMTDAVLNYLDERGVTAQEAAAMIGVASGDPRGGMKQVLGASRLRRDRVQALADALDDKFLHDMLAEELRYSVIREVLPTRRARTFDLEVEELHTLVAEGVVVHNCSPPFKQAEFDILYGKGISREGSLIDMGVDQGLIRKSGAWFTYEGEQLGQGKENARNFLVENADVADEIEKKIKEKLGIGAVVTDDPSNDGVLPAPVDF
# [7] = biological target: G-protein coupled receptor 55 (Homo sapiens, UniProt Q9Y2T6); test: blockers of GPR55 signalling, imaged – imaging, image-based, counter-screen for GPR35 antagonist project, SAR follow-up (AID 2397); format: functional
# G-protein coupled receptor 55, sequence (Q9Y2T6 whole entry): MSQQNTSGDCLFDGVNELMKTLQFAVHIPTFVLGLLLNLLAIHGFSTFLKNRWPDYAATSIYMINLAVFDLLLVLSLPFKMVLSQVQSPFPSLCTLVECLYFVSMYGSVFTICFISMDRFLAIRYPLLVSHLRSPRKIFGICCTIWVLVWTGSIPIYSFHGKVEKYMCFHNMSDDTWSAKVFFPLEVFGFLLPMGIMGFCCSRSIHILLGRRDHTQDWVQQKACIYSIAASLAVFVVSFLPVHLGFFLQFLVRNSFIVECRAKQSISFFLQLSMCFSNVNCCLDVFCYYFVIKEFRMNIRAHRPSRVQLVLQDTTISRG
# [8] = biological target: T3, Tyrosine-protein phosphatase non-receptor type 22 (Homo sapiens, UniProt Q9Y2R2); test: SAR LYP1 Fluorescent Assay using OMFP substrate for In Vitro dose response studies - Set 3. [Related pubchem assays (depositor defined):AID1779, AID1784, AID2140, AID2686]; format: functional
# T3 sequence (Q9Y2R2 whole entry): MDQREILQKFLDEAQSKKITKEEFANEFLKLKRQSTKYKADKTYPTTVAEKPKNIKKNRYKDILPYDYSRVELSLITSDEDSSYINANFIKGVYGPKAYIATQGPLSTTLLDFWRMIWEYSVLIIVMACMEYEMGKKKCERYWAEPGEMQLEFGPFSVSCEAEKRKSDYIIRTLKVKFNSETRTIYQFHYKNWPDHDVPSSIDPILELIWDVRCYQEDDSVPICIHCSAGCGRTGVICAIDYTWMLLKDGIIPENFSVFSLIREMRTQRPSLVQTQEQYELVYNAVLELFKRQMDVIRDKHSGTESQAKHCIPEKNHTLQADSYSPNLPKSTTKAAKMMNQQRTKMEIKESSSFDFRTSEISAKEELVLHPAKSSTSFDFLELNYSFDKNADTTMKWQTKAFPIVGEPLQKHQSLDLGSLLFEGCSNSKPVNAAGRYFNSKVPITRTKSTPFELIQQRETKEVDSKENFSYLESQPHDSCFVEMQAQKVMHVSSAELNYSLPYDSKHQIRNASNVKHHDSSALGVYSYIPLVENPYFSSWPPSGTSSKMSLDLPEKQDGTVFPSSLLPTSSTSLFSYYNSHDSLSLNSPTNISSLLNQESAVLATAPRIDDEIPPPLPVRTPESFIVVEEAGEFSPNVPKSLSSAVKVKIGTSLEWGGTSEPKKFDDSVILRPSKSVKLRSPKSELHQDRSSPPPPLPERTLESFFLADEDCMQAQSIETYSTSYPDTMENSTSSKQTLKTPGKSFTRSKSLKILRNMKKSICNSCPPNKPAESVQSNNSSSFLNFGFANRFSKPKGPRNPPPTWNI
# [9] = biological target: T4, Replicative DNA helicase DnaB (Mycobacterium tuberculosis, UniProt P9WMR3); test: DnaB intein splicing inhibitors, dose response, biochemical, cell-free fluorescence (AID 449749); format: functional
# T4 sequence (P9WMR3 whole entry): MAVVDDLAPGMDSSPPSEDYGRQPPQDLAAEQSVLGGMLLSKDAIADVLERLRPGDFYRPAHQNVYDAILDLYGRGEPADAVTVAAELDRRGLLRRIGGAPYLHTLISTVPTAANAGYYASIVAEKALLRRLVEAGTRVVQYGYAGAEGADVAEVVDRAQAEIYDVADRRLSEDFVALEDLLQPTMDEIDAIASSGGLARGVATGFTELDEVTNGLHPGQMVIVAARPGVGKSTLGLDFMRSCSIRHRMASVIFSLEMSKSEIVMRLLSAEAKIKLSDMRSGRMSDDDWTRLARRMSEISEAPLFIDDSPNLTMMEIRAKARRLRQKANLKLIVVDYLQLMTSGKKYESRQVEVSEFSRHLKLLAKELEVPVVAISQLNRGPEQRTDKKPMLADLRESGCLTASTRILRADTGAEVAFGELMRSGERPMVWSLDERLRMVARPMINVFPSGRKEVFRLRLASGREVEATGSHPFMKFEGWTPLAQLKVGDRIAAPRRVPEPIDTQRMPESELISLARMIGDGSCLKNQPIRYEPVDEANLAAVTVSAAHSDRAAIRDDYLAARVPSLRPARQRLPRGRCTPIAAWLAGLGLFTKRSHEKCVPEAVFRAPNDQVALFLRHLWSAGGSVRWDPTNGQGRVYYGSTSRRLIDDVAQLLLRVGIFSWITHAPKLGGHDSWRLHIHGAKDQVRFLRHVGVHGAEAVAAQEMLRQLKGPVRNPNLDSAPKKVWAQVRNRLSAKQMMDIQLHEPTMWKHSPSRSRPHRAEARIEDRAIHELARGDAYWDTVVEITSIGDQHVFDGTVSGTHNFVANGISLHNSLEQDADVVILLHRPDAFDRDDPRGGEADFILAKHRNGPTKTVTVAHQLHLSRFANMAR
# [10] = biological target: T3, Tyrosine-protein phosphatase non-receptor type 22; test: inhibition of lymphoid tyrosine phosphatase LYP – biochemical, pCAP fluorogenic substrate, fluorescence, set 3, SAR follow-up (AID 449727); format: functional
# [11] = biological target: Tyrosine-protein phosphatase non-receptor type 12 (Homo sapiens, UniProt Q05209); test: SAR Selectivity Analysis of small molecule inhibitors of PEST using pCAP in a fluorescence assay. [Related pubchem assays (depositor defined):AID1779, AID1784, AID2135]; format: functional
# Tyrosine-protein phosphatase non-receptor type 12, sequence (Q05209 whole entry): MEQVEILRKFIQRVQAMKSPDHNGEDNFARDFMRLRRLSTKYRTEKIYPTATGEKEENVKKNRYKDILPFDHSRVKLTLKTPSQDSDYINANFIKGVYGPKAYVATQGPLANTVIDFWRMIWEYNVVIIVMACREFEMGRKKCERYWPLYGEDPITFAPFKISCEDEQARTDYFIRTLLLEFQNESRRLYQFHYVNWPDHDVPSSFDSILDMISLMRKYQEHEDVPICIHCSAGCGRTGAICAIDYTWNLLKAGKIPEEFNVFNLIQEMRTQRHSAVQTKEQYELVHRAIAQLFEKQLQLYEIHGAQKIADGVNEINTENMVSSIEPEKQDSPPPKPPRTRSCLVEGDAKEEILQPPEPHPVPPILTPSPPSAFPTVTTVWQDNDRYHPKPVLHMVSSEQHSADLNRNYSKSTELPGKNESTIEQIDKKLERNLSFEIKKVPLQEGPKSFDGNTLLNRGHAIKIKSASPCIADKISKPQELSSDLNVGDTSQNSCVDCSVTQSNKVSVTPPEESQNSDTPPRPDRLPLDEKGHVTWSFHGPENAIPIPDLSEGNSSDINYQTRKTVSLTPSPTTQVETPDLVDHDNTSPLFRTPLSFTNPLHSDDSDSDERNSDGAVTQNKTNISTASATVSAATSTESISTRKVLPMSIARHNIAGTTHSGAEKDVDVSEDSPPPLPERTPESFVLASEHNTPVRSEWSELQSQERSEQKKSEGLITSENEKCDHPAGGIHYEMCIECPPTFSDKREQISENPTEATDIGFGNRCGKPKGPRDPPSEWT
# [12] = biological target: T1, G-protein coupled receptor 35; test: inhibition of zaprinast-stimulated GPR35 beta-arrestin translocation – imaging, U2OS, beta-arrestin-GFP, zaprinast agonist, primary screen (AID 2058); format: functional;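 further: antagonist potency meaning inhibition of agonist-induced arrestin redistribution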
# CAAX prenyl protease 1 = CAAX prenyl protease 1 (Saccharomyces cerevisiae S288c, UniProt P47154); test: yeast CAAX protease Ste24 inhibition – biochemical, S. cerevisiae, plate reader, cherry-pick, dose response (AID 488815)
# CAAX prenyl protease 1, sequence (P47154 whole entry): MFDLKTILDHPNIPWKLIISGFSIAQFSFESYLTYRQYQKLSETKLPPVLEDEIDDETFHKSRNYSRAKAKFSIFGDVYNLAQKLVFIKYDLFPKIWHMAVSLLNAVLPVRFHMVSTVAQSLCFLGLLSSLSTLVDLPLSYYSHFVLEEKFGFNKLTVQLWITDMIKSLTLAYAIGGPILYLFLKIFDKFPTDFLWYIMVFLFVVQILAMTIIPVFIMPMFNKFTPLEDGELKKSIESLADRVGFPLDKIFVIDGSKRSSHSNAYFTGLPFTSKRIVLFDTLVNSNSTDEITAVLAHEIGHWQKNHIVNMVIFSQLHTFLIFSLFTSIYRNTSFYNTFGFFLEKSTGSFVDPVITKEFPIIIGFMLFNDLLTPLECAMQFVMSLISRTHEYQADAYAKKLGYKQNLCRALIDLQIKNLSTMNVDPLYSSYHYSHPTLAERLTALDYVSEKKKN
# Trypsin = Trypsin (Sus scrofa, UniProt P00761); test: trypsin protease activity blockade – biochemical, quenched peptide fluorescence, cherry-pick, selectivity assay for Rce1 protease inhibitor project, dose response (AID 488789)
# Trypsin, sequence (P00761 whole entry): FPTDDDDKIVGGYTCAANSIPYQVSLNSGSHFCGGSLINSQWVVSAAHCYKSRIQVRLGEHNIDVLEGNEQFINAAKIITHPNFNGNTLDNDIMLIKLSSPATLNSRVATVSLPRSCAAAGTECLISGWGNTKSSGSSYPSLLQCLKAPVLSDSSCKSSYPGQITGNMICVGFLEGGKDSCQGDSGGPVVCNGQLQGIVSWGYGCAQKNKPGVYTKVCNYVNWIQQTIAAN
# CAAX prenyl protease 2 = biological target: T5, CAAX prenyl protease 2 (Saccharomyces cerevisiae S288c, UniProt Q03530); format: biochemical
# T5 sequence (Q03530 whole entry): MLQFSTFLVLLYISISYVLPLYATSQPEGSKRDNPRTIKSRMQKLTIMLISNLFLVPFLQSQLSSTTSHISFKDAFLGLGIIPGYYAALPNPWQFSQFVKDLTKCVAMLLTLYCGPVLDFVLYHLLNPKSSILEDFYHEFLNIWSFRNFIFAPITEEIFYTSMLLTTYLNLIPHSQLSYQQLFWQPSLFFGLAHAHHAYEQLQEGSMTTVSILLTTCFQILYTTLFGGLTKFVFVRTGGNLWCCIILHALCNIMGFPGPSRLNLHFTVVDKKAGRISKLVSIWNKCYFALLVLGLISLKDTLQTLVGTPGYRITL
# Phosphomannomutase 2 = Phosphomannomutase 2 (Homo sapiens, UniProt O15305); test: Counter screen SAR assay for PMM2 inhibitors via a fluorescence intensity assay. [Related pubchem assays (depositor defined):AID1545, AID1574]
# Phosphomannomutase 2, sequence (O15305 whole entry): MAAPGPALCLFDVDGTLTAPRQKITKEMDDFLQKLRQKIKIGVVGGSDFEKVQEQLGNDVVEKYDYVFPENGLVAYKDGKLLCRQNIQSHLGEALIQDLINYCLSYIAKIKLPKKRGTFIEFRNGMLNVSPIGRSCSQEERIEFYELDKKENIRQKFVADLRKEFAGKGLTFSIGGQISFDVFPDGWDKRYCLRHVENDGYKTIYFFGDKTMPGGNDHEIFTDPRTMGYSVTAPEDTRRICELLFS
# [13] = biological target: DNA dC->dU-editing enzyme APOBEC-3G (Homo sapiens, UniProt Q9HC16); test: Dose Response confirmation of small molecule APOBEC3G DNA Deaminase Inhibitors via a fluorescence-based single-stranded DNA deaminase assay. [Related pubchem assays (depositor defined):AID493012, AID493028]; format: functional
# DNA dC->dU-editing enzyme APOBEC-3G, sequence (Q9HC16 whole entry): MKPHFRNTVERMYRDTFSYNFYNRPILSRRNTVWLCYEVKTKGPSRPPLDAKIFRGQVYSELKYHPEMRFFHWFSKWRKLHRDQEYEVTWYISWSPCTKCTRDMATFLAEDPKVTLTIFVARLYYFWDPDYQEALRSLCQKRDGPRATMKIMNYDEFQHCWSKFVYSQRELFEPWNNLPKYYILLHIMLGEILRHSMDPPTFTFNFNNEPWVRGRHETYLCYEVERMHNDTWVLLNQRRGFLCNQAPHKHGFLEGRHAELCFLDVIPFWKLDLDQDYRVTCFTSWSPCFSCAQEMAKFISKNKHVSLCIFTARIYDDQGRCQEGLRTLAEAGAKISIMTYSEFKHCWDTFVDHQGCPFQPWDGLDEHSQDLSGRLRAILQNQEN
# [14] = biological target: T6, Mannose-6-phosphate isomerase (Homo sapiens, UniProt P34949); test: phosphomannose isomerase inhibition – biochemical, fluorescence intensity, confirmation (AID 1535)
# T6 sequence (P34949 whole entry): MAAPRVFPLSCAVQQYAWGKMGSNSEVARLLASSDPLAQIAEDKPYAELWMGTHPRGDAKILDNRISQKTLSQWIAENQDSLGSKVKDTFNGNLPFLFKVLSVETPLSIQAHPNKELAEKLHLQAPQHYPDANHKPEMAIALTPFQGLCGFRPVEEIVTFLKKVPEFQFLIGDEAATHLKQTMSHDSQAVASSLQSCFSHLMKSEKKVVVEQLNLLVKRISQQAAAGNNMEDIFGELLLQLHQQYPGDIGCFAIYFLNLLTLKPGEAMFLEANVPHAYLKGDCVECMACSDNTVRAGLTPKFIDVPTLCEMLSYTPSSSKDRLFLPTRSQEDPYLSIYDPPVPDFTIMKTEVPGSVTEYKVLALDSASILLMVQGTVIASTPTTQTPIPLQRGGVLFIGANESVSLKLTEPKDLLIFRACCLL
# [15] = biological target: DNA dC->dU-editing enzyme APOBEC-3A (Homo sapiens, UniProt P31941); test: A3A deaminase inhibition for selectivity – biochemical, dose response (AID 504722); format: functional
# DNA dC->dU-editing enzyme APOBEC-3A, sequence (P31941 whole entry): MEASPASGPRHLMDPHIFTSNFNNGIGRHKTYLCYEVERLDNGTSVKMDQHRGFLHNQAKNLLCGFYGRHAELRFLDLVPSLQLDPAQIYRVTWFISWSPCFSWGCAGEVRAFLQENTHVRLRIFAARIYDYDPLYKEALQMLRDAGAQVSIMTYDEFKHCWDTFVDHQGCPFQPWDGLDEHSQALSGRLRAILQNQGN
smiles,measurement,setting,value
COc1c(Cl)cc(Cl)cc1/C=C/C(=O)c1ccc(NC(=O)c2cccs2)cc1,AC50,[1],1.12 µM (active)
same,IC50,[2],2.56 µM (active)
same,IC50,[3],1.35 µM (active)
CN1/C(=C/C(=S)NC(=O)C2(C)CC2(Cl)Cl)C(C)(C)c2ccccc21 (centres undefined),EC50,[4],3.4 µM (active)
same,IC50,[2],2.5 µM (active)
same,IC50,[3],0.851 µM (active)
same,EC50,[5],> 60 µM (not active)
O=C(CCCN1C(=O)/C(=C/c2ccccc2)SC1=S)Nc1ccc(C(=O)O)c(O)c1,IC50,[6],2.67 µM (active)
same,EC50,Protein RecA,15.4 µM (active)
same,IC50,[7],> 32 µM (inactive)
same,IC50,[8],> 100 µM (inactive)
same,AC50,[9],12.3 µM (active)
same,IC50,[10],85 µM (active)
same,IC50,[11],17.2 µM (active)
same,IC50,[12],< 0.5 µM (active)
CC(C)c1cc(=O)oc2c3c4c(cc12)CCCN4CCC3,AC50,CAAX prenyl protease 1,4 µM (active)
same,AC50,Trypsin,24.1 µM (active)
same,AC50,CAAX prenyl protease 2,> 100 µM (inactive)
COc1ccc(OC)c(/N=c2\ssnc2Cl)c1,IC50,Phosphomannomutase 2,> 100 µM (inactive)
same,IC50,[13],15.4 µM (active)
same,IC50,[14],4.35 µM (active)
same,IC50,[15],> 100 µM (inactive)
Cc1ccc(/N=c2\ssnc2Cl)cc1[N+](=O)[O-],IC50,Phosphomannomutase 2,> 100 µM (inactive)
same,IC50,[14],4.46 µM (active)
